In PubChem BioAssay AID330 (DTP/NCI, 2004):
Values joined by “and” are separate entries in the source; they are usually repeats but may differ in a detail not shown here. Equal values may be shown once. Inconclusive results and toxic doses are left out.

Tested on: P388 leukemia ip, CD2F1 mice, survival T/C
Assay: NCI In Vivo Anticancer Drug Screen. Data for tumor model P388 Leukemia (intraperitoneal) in CD2F1 (CDF1) mice
Settings: endpoint: median survival time, higher = longer survival
How it was run: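 Mice carrying the transplanted tumor received test compound or vehicle. Survival was recorded in each group, and the value is the treated-group measurement divided by that of the vehicle-treated control group.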

[1] = dose: 50.0 mg/kg/injection, schedule: Q01DX005 (ip), vehicle: Klucel (hydroxypropylcellulose) (HPC)
[2] = dose: 100.0 mg/kg/injection, schedule: Q01DX005 (ip), vehicle: Klucel (hydroxypropylcellulose) (HPC)
[3] = dose: 200.0 mg/kg/injection, schedule: Q01DX005 (ip), vehicle: Klucel (hydroxypropylcellulose) (HPC)
[4] = dose: 50.0 mg/kg/injection, schedule: Q01DX005 (ip), vehicle: saline with Tween-80
[5] = dose: 100.0 mg/kg/injection, schedule: Q01DX005 (ip), vehicle: saline with Tween-80
[6] = dose: 200.0 mg/kg/injection, schedule: Q01DX005 (ip), vehicle: saline with Tween-80
[7] = dose: 50.0 mg/kg/injection, schedule: Q01DX009 (ip), vehicle: saline with Tween-80
[8] = dose: 100.0 mg/kg/injection, schedule: Q01DX009 (ip), vehicle: saline with Tween-80
[9] = dose: 50.0 mg/kg/injection, schedule: Q01DX009 (ip), vehicle: saline
[10] = dose: 100.0 mg/kg/injection, schedule: Q01DX009 (ip), vehicle: saline
[11] = dose: 200.0 mg/kg/injection, schedule: Q01DX009 (ip), vehicle: saline
[12] = dose: 100.0 mg/kg/injection, schedule: Q04DX003 (ip), vehicle: saline with Tween-80
[13] = dose: 200.0 mg/kg/injection, schedule: Q04DX003 (ip), vehicle: saline with Tween-80
[14] = dose: 400.0 mg/kg/injection, schedule: Q04DX003 (ip), vehicle: saline with Tween-80
[15] = dose: 60.0 mg/kg/injection, schedule: Q01DX005 (ip), vehicle: saline with Tween-80
[16] = dose: 120.0 mg/kg/injection, schedule: Q01DX005 (ip), vehicle: saline with Tween-80
[17] = dose: 240.0 mg/kg/injection, schedule: Q01DX005 (ip), vehicle: saline with Tween-80

## CS(=O)(=O)OC1C(COC(=O)c2ccccc2)OC2C1Oc1nc(=O)ccn12 (stereo unspecified)
[1]
  T/C: 98 % of control
[2]
  T/C: 99 % of control
[3]
  T/C: 101 % of control

## CC1C2CCN(C)C1Cc1ccc(O)cc12 (stereo unspecified)
[4]
  T/C: 94 % of control
[5]
  T/C: 92 % of control
[6]
  T/C: 100 % of control

## COC(OC)/C(C)=N/NC1=Nc2ccc(Cl)cc2C(c2ccccc2Cl)=NC1
[7]
  T/C: 98 % of control
[8]
  T/C: 95 % of control
dose: 200.0 mg/kg/injection, schedule: Q01DX009 (ip), vehicle: saline with Tween-80
  T/C: 101 % of control

## CCCCCCCCCCCCCCCCON
dose: 50.0 mg/kg/injection, schedule: Q01DX009 (ip), vehicle: Klucel (hydroxypropylcellulose) (HPC)
  T/C: 103 % of control
dose: 100.0 mg/kg/injection, schedule: Q01DX009 (ip), vehicle: Klucel (hydroxypropylcellulose) (HPC)
  T/C: 111 % of control

## Cc1ccc2c(c1)C(=O)C(CN1CCN(C)CC1)CO2 (stereo unspecified)
[9]
  T/C: 106 % of control
[10]
  T/C: 109 % of control
[11]
  T/C: 99 % of control

## CCOC(=O)Cn1cnc2cc(C)c(C)cc21
[12]
  T/C: 90 % of control
[13]
  T/C: 100 % of control
[14]
  T/C: 90 % of control

## Cc1cccc(C)c1NC1c2ccccc2C=Cc2ccccc21
[7]
  T/C: 87 % of control
[8]
  T/C: 89 % of control

## COc1cc2c(cc1OCc1ccccc1)C(Cc1cc(Br)sc1Br)N(C(C)=O)CC2 (stereo unspecified)
dose: 63.0 mg/kg/injection, schedule: Q01DX001 (ip), vehicle: Klucel (hydroxypropylcellulose) (HPC)
  T/C: 97 % of control
dose: 126.0 mg/kg/injection, schedule: Q01DX001 (ip), vehicle: Klucel (hydroxypropylcellulose) (HPC)
  T/C: 101 % of control
dose: 252.0 mg/kg/injection, schedule: Q01DX001 (ip), vehicle: Klucel (hydroxypropylcellulose) (HPC)
  T/C: 109 % of control

## O=C1C(CCl)(CCl)CCC12CN=C(Cl)C2 (stereo unspecified)
[4]
  T/C: 100 % of control
[5]
  T/C: 100 % of control
[6]
  T/C: 106 % of control

## Nc1nc2c(-c3ccc([N+](=O)[O-])cc3)nnn2c2cccc(Cl)c12
[15]
  T/C: 98 % of control
[16]
  T/C: 99 % of control
[17]
  T/C: 97 % of control

## OCCOCCCl
dose: 100.0 mg/kg/injection, schedule: Q01DX009 (ip), vehicle: suspension in saline
  T/C: 96 % of control
dose: 200.0 mg/kg/injection, schedule: Q01DX009 (ip), vehicle: suspension in saline
  T/C: 109 % of control
dose: 400.0 mg/kg/injection, schedule: Q01DX009 (ip), vehicle: suspension in saline
  T/C: 110 % of control

## O=C1C[N+]2(Cc3ccccc3)CCC1CC2
dose: 12.5 mg/kg/injection, schedule: Q01DX009 (ip), vehicle: saline
  T/C: 101 % of control
dose: 25.0 mg/kg/injection, schedule: Q01DX009 (ip), vehicle: saline
  T/C: 108 % of control
[9]
  T/C: 90 % of control

## CCN(CC)c1ccc(Cc2ccc(N(CC)CC)c3cccnc23)c2ncccc12
[1]
  T/C: 100 % of control
[2]
  T/C: 99 % of control
[3]
  T/C: 98 % of control

## C=CCOC(=O)C1CC2OC2CC1C (stereo unspecified)
dose: 75.0 mg/kg/injection, schedule: Q01DX009 (ip), vehicle: saline with Tween-80
  T/C: 96 % of control
dose: 150.0 mg/kg/injection, schedule: Q01DX009 (ip), vehicle: saline with Tween-80
  T/C: 103 % of control
dose: 300.0 mg/kg/injection, schedule: Q01DX009 (ip), vehicle: saline with Tween-80
  T/C: 97 % of control

## CC(=O)Oc1cccnc1
dose: 50.0 mg/kg/injection, schedule: Q01DX006 (ip), vehicle: saline
  T/C: 106 % of control
[9]
  T/C: 100 % of control
dose: 100.0 mg/kg/injection, schedule: Q01DX006 (ip), vehicle: saline
  T/C: 100 % of control
[10]
  T/C: 96 % of control
dose: 200.0 mg/kg/injection, schedule: Q01DX006 (ip), vehicle: saline
  T/C: 100 % of control
[11]
  T/C: 95 % of control
dose: 400.0 mg/kg/injection, schedule: Q01DX006 (ip), vehicle: saline
  T/C: 100 % of control
dose: 400.0 mg/kg/injection, schedule: Q01DX009 (ip), vehicle: saline
  T/C: 95 % of control
dose: 600.0 mg/kg/injection, schedule: Q01DX006 (ip), vehicle: saline
  T/C: 100 % of control
dose: 600.0 mg/kg/injection, schedule: Q01DX009 (ip), vehicle: saline
  T/C: 94 % of control
dose: 800.0 mg/kg/injection, schedule: Q01DX006 (ip), vehicle: saline
  T/C: 99 % of control
dose: 800.0 mg/kg/injection, schedule: Q01DX009 (ip), vehicle: saline
  T/C: 95 % of control

## OCC1(c2cccnc2)OCCO1
dose: 50.0 mg/kg/injection, schedule: Q01DX005 (ip), vehicle: saline
  T/C: 99 % of control
dose: 100.0 mg/kg/injection, schedule: Q01DX005 (ip), vehicle: saline
  T/C: 101 % of control
dose: 200.0 mg/kg/injection, schedule: Q01DX005 (ip), vehicle: saline
  T/C: 101 % of control

## CC1(C)CC(N2CCOCC2)=CC(=NCc2ccccc2)N1
dose: 12.5 mg/kg/injection, schedule: Q01DX005 (ip), vehicle: Klucel (hydroxypropylcellulose) (HPC)
  T/C: 107 % of control
dose: 25.0 mg/kg/injection, schedule: Q01DX005 (ip), vehicle: Klucel (hydroxypropylcellulose) (HPC)
  T/C: 99 % of control
[1]
  T/C: 100 % of control and 101 % of control

## COc1ccc2c(c1)C(=O)C[C@@H]1[C@](C)(C#N)CCC[C@]21C
[15]
  T/C: 100 % of control
[16]
  T/C: 94 % of control
[17]
  T/C: 94 % of control

## CN1CC(C(=O)NC2(C)OC3(O)C4CCCN4C(=O)C(Cc4ccccc4)N3C2=O)C=C2c3cccc4[nH]cc(c34)CC21 (stereo unspecified)
[1]
  T/C: 91 % of control
[2]
  T/C: 87 % of control
[3]
  T/C: 102 % of control

## CC(=NC(C)C)Nc1ccccc1
[7]
  T/C: 104 % of control
[8]
  T/C: 105 % of control

## Cc1c(COC(=O)NC(C)C)c(COC(=O)NC(C)C)c(-c2ccccc2)n1-c1ccccc1
[4]
  T/C: 188 % of control and 192 % of control

## CC1(C)N=C(N)N=C(N)N1c1ccccc1
dose: 25.0 mg/kg/injection, schedule: Q04DX003 (ip), vehicle: saline
  T/C: 104 % of control
dose: 50.0 mg/kg/injection, schedule: Q04DX003 (ip), vehicle: saline
  T/C: 112 % of control

## CCCCC1SCC(=O)N1c1nncs1 (stereo unspecified)
[15]
  T/C: 104 % of control
[16]
  T/C: 98 % of control
[17]
  T/C: 103 % of control

## CN=C1c2ccccc2C(=O)c2c1c(O)n(C)c2O
[1]
  T/C: 97 % of control
[2]
  T/C: 97 % of control
[3]
  T/C: 106 % of control

## CC(CN)OS(=O)(=O)O (stereo unspecified)
[12]
  T/C: 100 % of control
[13]
  T/C: 100 % of control
[14]
  T/C: 95 % of control

## Cc1cc(=O)c(C#N)c(C)s1
dose: 100.0 mg/kg/injection, schedule: Q04DX002 (ip), vehicle: saline with Tween-80
  T/C: 107 % of control
dose: 200.0 mg/kg/injection, schedule: Q04DX002 (ip), vehicle: saline with Tween-80
  T/C: 100 % of control
dose: 400.0 mg/kg/injection, schedule: Q04DX002 (ip), vehicle: saline with Tween-80
  T/C: 110 % of control

## CC(C)c1ccc(C(=O)C2C(=O)C=C(c3ccc(C(C)C)cc3)OC2=O)cc1 (stereo unspecified)
dose: 100.0 mg/kg/injection, schedule: Q01DX001 (ip), vehicle: saline
  T/C: 105 % of control
dose: 200.0 mg/kg/injection, schedule: Q01DX001 (ip), vehicle: saline
  T/C: 108 % of control
dose: 400.0 mg/kg/injection, schedule: Q01DX001 (ip), vehicle: saline
  T/C: 118 % of control

## c1ccc2c3c(ccc2c1)OP1(=NP(N2CC2)(N2CC2)=NP(N2CC2)(N2CC2)=N1)Oc1ccc2ccccc2c1-3
dose: 100.0 mg/kg/injection, schedule: Q04DX002 (ip), vehicle: Klucel (hydroxypropylcellulose) (HPC)
  T/C: 101 % of control and 117 % of control
dose: 200.0 mg/kg/injection, schedule: Q04DX002 (ip), vehicle: Klucel (hydroxypropylcellulose) (HPC)
  T/C: 100 % of control
dose: 400.0 mg/kg/injection, schedule: Q04DX002 (ip), vehicle: Klucel (hydroxypropylcellulose) (HPC)
  T/C: 108 % of control
dose: 800.0 mg/kg/injection, schedule: Q04DX002 (ip), vehicle: Klucel (hydroxypropylcellulose) (HPC)
  T/C: 102 % of control

## CC(C)c1cccc(C(C)C)c1NC(=O)Nc1cccc(C(F)(F)F)c1
dose: 15.0 mg/kg/injection, schedule: Q01DX005 (ip), vehicle: Klucel (hydroxypropylcellulose) (HPC)
  T/C: 88 % of control
dose: 30.0 mg/kg/injection, schedule: Q01DX005 (ip), vehicle: Klucel (hydroxypropylcellulose) (HPC)
  T/C: 93 % of control
dose: 240.0 mg/kg/injection, schedule: Q01DX005 (ip), vehicle: Klucel (hydroxypropylcellulose) (HPC)
  T/C: 88 % of control
